Assay results reported in US11578074B2, “Nitrogenous heterocyclic compound, preparation method, intermediate, composition, and application” (SHANGHAI PHARMACEUTICALS HOLDING CO., LTD., priority 2017, dated 2023).

What was measured:
[1] = system: N87 (human gastric cancer cell NCI-N87); test: In vitro proliferation inhibition assay of cell lines (CellTiter-Glo), N87; type: cell-based; settings: N87 cells, 72 hours
Procedure: (§1) In Vitro Proliferation Inhibition Assay of Cell Lines
(§2) 1. Cell culture and inoculation: on the first day of the experiment, normal cultured cells were taken, and in the exponential growth state, after digestion and dispersion, the cell density was then adjusted to 8.8×10^4 cells/mL for BT-474, and 6.6×10^4 cells/mL for N87, and 90 μL of which were inoculated to each well of a 96-well cell culture plate; after the inoculation was completed, the microplate was cultured under the conditions of 37° C. and 5% CO2 overnight. 2. Dosing to the cells: on the second day of the experiment, the microplate was taken out from the incubator, and 10 μL of 10× compound was added to each well of the microplate, setting 2 duplicate wells for each drug concentration and 9 dosing concentrations for each compound. According to different cell lines, the initial concentration of each compound was different. Upon completion of addition, the microplate was placed under the conditions of 37° C. and 5% CO2 for 72 hours. 3. Data acquisition: the microplate was taken out from the incubator and was allowed to equilibrate at room temperature for 30 minutes. 100 μL of CellTiter-Glo® Luminescent Cell Viability Assay reaction solution which had been equilibrated at room temperature was added to each well, and the reaction solution was shaken at 1300 rpm for 2 minutes at room temperature. After that, the microplate was placed in HERAEUS Multifuge X1R centrifuge, centrifuged at 2000 rpm for 1 minute, and allowed to equilibrate at room temperature for 10 minutes. The fluorescence signal value was measured on EnVision™.

EGFR kinase = EGFR kinase (Homo sapiens, UniProt P00533); test: EGFR/ErbB2 enzymatic experiment (HTRF kinEASE-TK), EGFR; type: biochemical; settings: EGFR kinase 0.06 units/μL, ATP 1.65 μM; read-out: Kinase IC50 (nM) in vitro EGFR
Chain of EGFR kinase (P00533 25-1210): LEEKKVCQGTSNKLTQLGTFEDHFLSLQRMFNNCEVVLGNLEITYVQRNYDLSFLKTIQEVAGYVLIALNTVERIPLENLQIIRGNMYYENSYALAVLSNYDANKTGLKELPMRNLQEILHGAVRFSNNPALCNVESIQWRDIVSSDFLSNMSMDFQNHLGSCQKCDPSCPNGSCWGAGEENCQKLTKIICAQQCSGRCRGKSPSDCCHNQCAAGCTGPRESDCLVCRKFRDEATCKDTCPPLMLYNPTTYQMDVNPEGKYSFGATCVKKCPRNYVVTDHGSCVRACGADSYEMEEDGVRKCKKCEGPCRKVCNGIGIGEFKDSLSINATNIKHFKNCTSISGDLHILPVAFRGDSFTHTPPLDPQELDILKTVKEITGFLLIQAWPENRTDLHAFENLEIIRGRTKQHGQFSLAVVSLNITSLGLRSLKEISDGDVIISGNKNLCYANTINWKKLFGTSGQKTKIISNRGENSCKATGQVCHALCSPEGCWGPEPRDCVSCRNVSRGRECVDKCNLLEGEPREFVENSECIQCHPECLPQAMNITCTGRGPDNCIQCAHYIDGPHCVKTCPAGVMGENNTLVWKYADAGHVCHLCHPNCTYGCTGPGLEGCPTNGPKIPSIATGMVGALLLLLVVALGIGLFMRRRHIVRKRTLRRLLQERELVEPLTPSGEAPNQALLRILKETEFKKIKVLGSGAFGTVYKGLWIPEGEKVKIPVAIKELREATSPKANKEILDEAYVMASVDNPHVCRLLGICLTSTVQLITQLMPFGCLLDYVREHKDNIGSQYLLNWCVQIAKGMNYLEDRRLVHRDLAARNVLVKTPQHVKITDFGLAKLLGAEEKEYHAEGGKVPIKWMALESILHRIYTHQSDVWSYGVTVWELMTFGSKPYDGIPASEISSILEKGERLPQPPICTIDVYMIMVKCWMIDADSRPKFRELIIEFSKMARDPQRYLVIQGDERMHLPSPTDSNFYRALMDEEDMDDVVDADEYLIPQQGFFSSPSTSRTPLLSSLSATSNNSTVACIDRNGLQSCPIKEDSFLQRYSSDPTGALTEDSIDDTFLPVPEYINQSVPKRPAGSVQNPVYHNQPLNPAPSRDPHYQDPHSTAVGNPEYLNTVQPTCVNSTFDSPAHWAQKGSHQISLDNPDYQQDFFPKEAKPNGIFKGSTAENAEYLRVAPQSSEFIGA
Procedure: (§3) EGFR/ErbB2 Enzymatic Experiment
(§4) Firstly, 1× reaction buffer required for the kinase was prepared, then 5× Enzymatic buffer (HEPES 20 mM pH 7.0, NaN3 0.1%, BSA 0.05%, sodium orthovanadate 0.5 mM) was diluted in HTRF kinEASE-TK kit by 1 time with deionized water, and 50 nM Supplement Enzymatic buffer (SEB REAGENT), 1 mM MnCl2, 5 mM MfCl2, 1 mM DTT were added. Secondly, 5× compound was prepared, and 10 mM test compound storage solution was diluted in multiple steps with DMSO in a 96-well compound plate to prepare 100× compound as an initial concentration, which was then used as the first concentration to carry out a 3-fold gradient dilution with DMSO to obtain a total of 10 concentrations. Then 1 μL of gradient diluent was added to 19 μL of 1× reaction buffer to prepare 5× compound for later use. Then 2 μL of 5× compound was transferred from the 96-well plate into a 384-well plate. To the compound-free control wells was added 2 μL of the following liquid: 19 μL of 1× reaction buffer with addition of 1 μL of DMSO. To the blank control well was added 2 μL of 250 mM EDTA. […] In the fourth step of reaction termination, HTRF Detection buffer was used to prepare a mixture of 2×TK Antibody-EU (K) and Sa-XL665, and the amount of TK Antibody-EU (K) was 5 μL per well. After the enzyme reaction was carried out for 30 minutes, 10 μL of the above liquid was added to a 384-well plate, and the reaction was carried out at room temperature for 1 hour. […] RFU665 nM and RFU620 nM were measured, and RFU665 nM/RFU620 nM×10000 was used as final data for analysis.

[2] = system: BT-474 (human breast cancer cell); test: In vitro proliferation inhibition assay of cell lines (CellTiter-Glo), BT-474; type: cell-based; settings: BT-474 cells, 72 hours
Procedure: as §1
as §2, with “Cell culture and inoculation: on the first day of the experiment, normal cultured cells were taken, and in the exponential growth state, after digestion and dispersion, the cell density was then adjusted to 8.8×10^4 cells/mL for BT-474, and 6.6×10^4 cells/mL for N87, and 90 μL of which were inoculated to each well of a 96-well cell culture plate; after the inoculation was completed, the microplate was cultured under the conditions of 37° C. and 5% CO2 overnight.” left out

ErbB2 kinase = biological target: T1, ErbB2 kinase (Homo sapiens, UniProt P04626); test: EGFR/ErbB2 enzymatic experiment (HTRF kinEASE-TK), ErbB2; type: biochemical; settings: ErbB2 kinase 0.06 ng/μL, ATP 4 μM; read-out: Kinase IC50 (nM) in vitro ErbB2
T1 construct: The final concentration of ErbB2 kinase was 0.06 ng/μL
T1 sequence (P04626 23-1255): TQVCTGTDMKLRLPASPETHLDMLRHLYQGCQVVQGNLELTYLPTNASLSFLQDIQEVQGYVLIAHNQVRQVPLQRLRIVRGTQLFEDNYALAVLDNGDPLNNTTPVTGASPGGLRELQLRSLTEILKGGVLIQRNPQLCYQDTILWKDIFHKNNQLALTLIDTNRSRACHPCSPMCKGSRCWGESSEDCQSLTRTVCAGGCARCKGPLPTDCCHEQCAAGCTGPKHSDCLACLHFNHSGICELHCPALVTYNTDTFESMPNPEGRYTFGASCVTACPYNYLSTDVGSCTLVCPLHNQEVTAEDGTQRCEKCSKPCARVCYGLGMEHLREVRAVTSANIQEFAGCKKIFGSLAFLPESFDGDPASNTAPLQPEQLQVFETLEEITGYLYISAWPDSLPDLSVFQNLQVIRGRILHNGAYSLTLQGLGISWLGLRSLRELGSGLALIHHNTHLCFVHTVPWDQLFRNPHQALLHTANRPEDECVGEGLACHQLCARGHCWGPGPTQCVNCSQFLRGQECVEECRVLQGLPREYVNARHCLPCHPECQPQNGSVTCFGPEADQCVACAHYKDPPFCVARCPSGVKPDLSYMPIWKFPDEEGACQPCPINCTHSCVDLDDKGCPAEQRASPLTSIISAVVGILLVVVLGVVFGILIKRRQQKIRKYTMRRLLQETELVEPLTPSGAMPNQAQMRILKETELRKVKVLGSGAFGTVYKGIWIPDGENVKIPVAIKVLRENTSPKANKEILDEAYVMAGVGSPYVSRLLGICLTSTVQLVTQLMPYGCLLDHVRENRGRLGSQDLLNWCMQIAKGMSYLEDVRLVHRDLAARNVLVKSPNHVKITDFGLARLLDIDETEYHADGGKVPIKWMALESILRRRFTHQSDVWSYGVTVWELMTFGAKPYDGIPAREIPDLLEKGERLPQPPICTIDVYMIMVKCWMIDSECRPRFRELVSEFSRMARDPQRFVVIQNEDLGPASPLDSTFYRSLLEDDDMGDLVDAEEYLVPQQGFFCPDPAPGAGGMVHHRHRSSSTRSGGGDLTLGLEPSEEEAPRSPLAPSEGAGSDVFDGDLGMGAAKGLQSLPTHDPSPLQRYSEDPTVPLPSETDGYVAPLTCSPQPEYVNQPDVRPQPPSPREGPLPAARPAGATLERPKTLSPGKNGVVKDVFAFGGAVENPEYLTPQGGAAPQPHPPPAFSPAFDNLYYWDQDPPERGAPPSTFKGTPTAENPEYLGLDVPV
Procedure: as §3, §4

Row | IC50 [1] | IC50 (EGFR kinase) | IC50 [2] | IC50 (ErbB2 kinase) | SMILES
1 | 1.6 nM | 0.757 nM | 2.65 nM | 1.09 nM | Cc1cc(Nc2ncnc3ccc(NC(=O)/C=C/[C@H]4CCCN4C)cc23)ccc1Oc1cnc2ccnn2c1
2 | 22.6 nM | 1.5 nM | 15.4 nM | 0.689 nM | Cc1cc(Nc2ncnc3ccc(NC(=O)/C=C/[C@H]4CCCN4C)cc23)ccc1Oc1ccc2nc[nH]c2c1
3 | 33.4 nM | 5.29 nM | 11 nM | 3.25 nM | Cc1cc(Nc2ncnc3ccc(NC(=O)C=CC4COCCN4)cc23)ccc1Oc1cc2nncn2cn1 (stereo in doubt) [Final product of Embodiment 28, (E)-N-(4-((4-([1,2,4]triazolo[4,3-c]pyrimidin-7-yloxy)-3-methylphenyl)amino)quinazolin-6-yl)-3-(morpholin-3-yl)acrylamide]
4 | 10 nM |  |  |  | Cc1cc(Nc2ncnc3ccc(NC(=O)/C=C/[C@@H]4CCCN4C)cc23)ccc1Oc1cc2nncn2cn1 [Final product of Embodiment 1-97, (S,E)-N-(4-((4-([1,2,4]triazolo[4,3-c]pyrimidin-7-yloxy)-3-methylphenyl)amino)quinazolin-6-yl)-3-(1-methylpyrrolidin-2-yl)acrylamide]
5 | 65.5 nM | 7.09 nM | 49.5 nM | 0.851 nM | C=CC(=O)N1CCC[C@@H](Nc2ccc3ncnc(Nc4ccc(Oc5cc6nncn6cn5)c(C)c4)c3c2)C1 [Final product of Embodiment 7, (R)-1-(3-((4-((4-([1,2,4]triazolo[4,3-c]pyrimidin-7-yloxy)-3-methylphenyl)amino)quinazolin-6-yl)amino)piperidin-1-yl)propan-2-en-1-one]
6 | 18.8 nM | 13.8 nM | 9.62 nM | 7.98 nM | C=CC(=O)Nc1ccc2ncc(C#N)c(Nc3ccc(Oc4cc5nncn5cn4)c(C)c3)c2c1 [Final product of Embodiment 9, N-(4-((4-([1,2,4]triazolo[4,3-c]pyrimidin-7-yloxy)-3-methylphenyl)amino)-3-cyanoquinolin-6-yl)acrylamide]
7 | 301 nM | 156 nM | 162 nM | 17.5 nM | Cc1cc(Nc2ncnc3ccc(/C=C/C(=O)N(C)C)cc23)ccc1Oc1cc2nncn2cn1 [Final product of Embodiment 15, (E)-3-(4-((4-([1,2,4]triazolo[4,3-c]pyrimidin-7-yloxy)-3-methylphenyl)amino)quinazolin-6-yl)-N,N-dimethylacrylamide]
8 | 692 nM | 33.7 nM | 256 nM | 22 nM | Cc1cc(Nc2ncnc3ccc(/C=C/C(=O)NC4CC4)cc23)ccc1Oc1cc2nncn2cn1 [Final product of Embodiment 16, (E)-3-(4-((4-([1,2,4]triazolo[4,3-c]pyrimidin-7-yloxy)-3-methylphenyl)amino)quinazolin-6-yl)-N-cyclopropylacrylamide]
9 | 94 nM | 3.46 nM | 54.6 nM | 8.25 nM | Cc1cc(Nc2c(C#N)cnc3ccc(NC(=O)/C=C/[C@H]4CCCN4)cc23)ccc1Oc1cc2nncn2cn1 [Final product of Embodiment 21, (R,E)-N-(4-((4-([1,2,4]triazolo[4,3-c]pyrimidin-7-yloxy)-3-methylphenyl)amino)-3-cyanoquinolin-6-yl)-3-(pyrrolidin-2-yl)acrylamide]
10 | 68.2 nM | 23.4 nM | 50.7 nM | 8.47 nM | Cc1cc(Nc2ncnc3ccc(NC(=O)/C=C/[C@H]4CCCN4C)cc23)ccc1Oc1ccn2cnnc2c1 [Final product of Embodiment 25]
11 | 77.5 nM | 2.21 nM | 25.7 nM | 1.61 nM | Cc1cc(Nc2ncnc3ccc(NC(=O)/C=C/C4COCCN4)cc23)ccc1Oc1cc2nncn2cn1 (stereo not shown) [Final product of Embodiment 27, (E)-N-(4-((4-([1,2,4]triazolo[4,3-c]pyrimidin-7-yloxy)-3-methylphenyl)amino)quinazolin-6-yl)-3-(morpholin-3-yl)acrylamide]
12 | 60.4 nM | 20.5 nM | 46.6 nM | 15.2 nM | Cc1cc(Nc2ncnc3ccc(NC(=O)/C=C/[C@H]4CCCN4C)cc23)ccc1Oc1cnn2cnnc2c1 [Final product of Embodiment 29, (R,E)-N-(4-((4-([1,2,4]triazolo[4,3-b]pyridazin-7-yloxy)-3-methylphenyl)amino)quinazolin-6-yl)-3-(1-methylpyrrolidin-2-yl) acrylamide]
13 | 66.5 nM | 65.2 nM | 76 nM | 220 nM | Cc1cc(Nc2c(C#N)cnc3ccc(NC(=O)/C=C/[C@H]4CCCN4C)cc23)ccc1Oc1cnc2c(cnn2C)c1 [Final product of Embodiment 31]
14 | 18.9 nM | 0.514 nM | 17.7 nM | 2.67 nM | COCCOc1cc2ncnc(Nc3ccc(Oc4cc5nncn5cn4)c(C)c3)c2cc1NC(=O)/C=C/[C@H]1CCCN1 [Final product of Embodiment 35]
15 | 1.64 nM | 0.53 nM | 1.89 nM | 1.1 nM | COCCOc1cc2ncnc(Nc3ccc(Oc4cc5nncn5cn4)c(C)c3)c2cc1NC(=O)/C=C/[C@H]1CCCN1C [Final product of Embodiment 36]

Row | SMILES | IC50 [1] | IC50 (EGFR kinase) | IC50 [2] | IC50 (ErbB2 kinase)
16 | CCOc1cc2ncc(C#N)c(Nc3ccc(OCc4ccccn4)c(Cl)c3)c2cc1NC(=O)/C=C/[C@H]1CCCN1C [drawing 239, reference compound] | 1.2 nM |  | 2.56 nM | 1.67 nM
17 | CCOc1cc2ncc(C#N)c(Nc3ccc(OCc4ccccn4)c(Cl)c3)c2cc1NC(=O)/C=C/CN(C)C [drawing 240, reference compound] | 0.82 nM |  |  | 
